Measurements as given in the NIST ThermoML archive (doi:10.1016/j.jct.2017.03.032).

Conditions: Liquid, Closed cell (Static) method

F/C=C/C(F)(F)F [trans-1,3,3,3-tetrafluoropropene]
Conditions	vapor or sublimation pressure [kPa]
280.15 K	276.5
285.18 K	328.2
290.12 K	386
295.11 K	452.1
300.15 K	526.7
305.15 K	609.7
310.34 K	706.3
315.18 K	805
320.1 K	916.6
325.17 K	1043.5
330.13 K	1178.1
